Data on 9 molecules can be found in patent US20230391772A1, “METHODS AND COMPOSITIONS FOR TARGETED PROTEIN DEGRADATION” (Ranok Therapeutics (Hangzhou) Co. Ltd., priority 2020, published 2023).

The subject of experiment [1] is NCI-H23 human non-small cell lung cancer. As to the kind of experiment: NCI-H23 CCK-8 proliferation assay. The following applies: NCI-H23 cells, 72 hr. The class given is cell-based. How it is done: (§1) The following cancer cell lines were employed: BT-474 human breast carcinoma (ATCC, #HTB-20); MIA PaCa-2 human pancreatic carcinoma [2 copies KRAS(G12C)](ATCC, #CRL-1420); NCI-H23 human non-small cell lung cancer [1 copy KRAS(G12C)](ATCC, #CRL-5800); NCI-H358 human non-small cell lung cancer [1 copy KRAS(G12C)](ATCC, #CRL-5807); LU65A human lung carcinoma (Pharmaron, Beijing, China). Cell lines were cultured essentially according to ATCC and Pharmaron recommendations.
Cancer Cell Line Proliferation (CCK-8) Assays
3-fold serial dilutions of each test compound were prepared ranging from 20 μM to 1.02 nM.
% Inhibition=100−(D−B)/(S−B)*100%. • S: Absorbance of cells treated with DMSO • D: Absorbance of compound-treated cells • B: Absorbance of medium with DMSO without cells

For experiment [2], the system named is NCI-H358 human non-small cell lung cancer. Nature of the experiment: NCI-H358 CCK-8 proliferation assay. The format is cell-based. Conditions: NCI-H358 cells, 72 hr. The method in brief:
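Proliferation of mutant-KRAS(G12C) cells (2 copies in MIA PaCa-2, single copy in NCI-H358/NCI-H23) measured with CCK-8 after treatment across 20 μM–1.02 nM; inhibition expressed relative to vehicle-treated wells after subtracting no-cell background.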

The target of another experiment is T1, HSP90a protein (Homo sapiens, UniProt P07900).
T1 construct: purchased BPS Bioscience 50298
As to the kind of experiment: HSP90α-binding fluorescent polarization (FP) assay, BODIPY-labeled RNK04010 probe. Conditions: FP competition with RNK04010 (BODIPY-labeled), 5 nM, 300 min at 25° C. The method in brief:
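N-terminal HSP90a construct; tracer 5 nM final (FITC-geldanamycin or BODIPY-RNK04010, a labeled triazolone binder). Compounds 20 μM–5.2 nM, 2.5-fold steps. 25° C, 120 min (FITC) / 300 min (BODIPY). FP readout.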

Experiment [3] addresses T2, KRAS(G12C) (Homo sapiens, UniProt P01116, G12C). Nature of the experiment: KRAS(G12C) Western blot protein degradation assay in MIA PaCa-2 cells. The format is cell-based. Also noted: host or cells: LU65A. The following applies: 10,000 nM, 48 hr. How it is done: as §1
KRAS(G12C) Western Blot Protein Degradation Assay
The MIA PaCa-2 human pancreatic carcinoma cell line and LU65A human lung cancer cell line, which expresses KRAS(G12C), were seeded in 6- or 12-well tissue culture plates, and after 1 hr, test compounds were added at various concentrations and incubated at 37° C./5% CO2 for 48 hr (MIA Paca-2) and 6 hr (LU65A) respectively. Cells were then washed with cold PBS, aspirated and cold RIPA buffer containing a protease/phosphatase inhibitor cocktail was added to lyse cells. After centrifugation, the total protein concentrations of cell lysates were determined using the BCA protein assay. Samples were normalized for equivalent protein concentrations, 5×SDS-PAGE loading buffer added and denatured at 100° C. for 10 min. 20 μl of each sample/well was loaded on a SDS-PAGE gel and electrophoresed for 20 min at 80 V, then 120 V for 1.5 hr. Gels were then electroblotted to nitrocellulose membranes using a wet-transfer method at 250 mA for 2.5 hr. Membranes were incubated with blocking buffer for 1 hr and washed 3 times with TBST for 5 min. Membranes were then incubated with anti-KRAS (Sigma-Aldrich, #SAB1404011) and anti-β-Actin monoclonal antibodies (Cell Signaling Technology, #3700) diluted in blocking buffer at 4° C. overnight per the manufacturer's recommendations. After washing 3 times, blots were incubated with appropriately labeled secondary antibodies for 1 hr at room temperature and washed again. Fluorescence imaging and quantitation was performed using a LI-COR Odyssey. Results was analyzed using GraphPad Prism 7 software. Compound degradation of was determined by the following equation and DC50 values (the concentration at which 50% of the maximal degradation of KRAS occurs) calculated using GraphPad Prism 7 software:
% Inhibition=100−(D−B)/(S−B)*100%. • S: Fluorescence intensity of cells with antibody • D: Fluorescence intensity of compound-treated cells with antibody • B: Fluorescence intensity of cells without antibody

Experiment [4] deals with T2, KRAS(G12C). Nature of the experiment: KRAS(G12C)/SOS1 homogeneous time-resolved fluorescence (HTRF) assay. The following applies: absence of GTP, 4° C. for 3 hr, read-out: KRAS (G12C) binding. Also noted: purchased Cisbio 63ADK000CB16PEG. The method in brief: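 Three-hour incubation at 4 °C of 3-fold compound dilutions (lowest 1.02 nM) with KRAS(G12C), SOS1 and detection reagents, GTP absent. Disruption of the KRAS(G12C)/SOS1 complex detected by time-resolved fluorescence.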

The target in experiment [5] is T2, KRAS(G12C). Nature of the experiment: KRAS(G12C) Western blot protein degradation assay in LU65A cells. The class given is cell-based. Further details: LU65A human lung cancer cell line, which expresses KRAS(G12C); host or cells: LU65A. Conditions: 6 hr. The method in brief: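 KRAS levels read by fluorescent Western blot (β-actin as reference) on BCA-normalized lysates. Exposure to a compound concentration range at 37 °C lasted 6 hr in LU65A and 48 hr in MIA PaCa-2; DC50 taken as half-maximal degradation concentration.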

pEC50, pIC50: −log10 of the molar value.

T2 sequence (P01116 1-188 isoform P01116-2 G12C): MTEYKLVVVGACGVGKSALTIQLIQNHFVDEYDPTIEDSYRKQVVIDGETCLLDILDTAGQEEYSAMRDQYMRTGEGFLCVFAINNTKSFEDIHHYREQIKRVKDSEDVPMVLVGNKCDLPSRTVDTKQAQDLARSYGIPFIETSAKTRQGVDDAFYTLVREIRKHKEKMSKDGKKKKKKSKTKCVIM

For the molecule `C=CC(=O)N1CCN(c2nc(NCCC(=O)N3CCC(CN4CCN(Cc5ccc(-n6c(C(=O)NCC(F)(F)F)nnc6-c6cc(C)c(O)cc6O)cc5)CC4)CC3)nc3c2CCN(c2cc(O)cc4ccccc24)C3)CC1` [Compound 10, 4-(4-((4-((1-(3-((4-(4-acryloylpiperazin-1-yl)-7-(3-hydroxynaphthalen-1-yl)-5,6,7,8-tetrahydropyrido[3,4-d]pyrimidin-2-yl)amino)propanoyl)piperidin-4-yl)methyl)piperazin-1-yl)methyl)phenyl)-5-(2,4-dihydroxy-5-methylphenyl)-N-(2,2,2-trifluoroethyl)-4H-1,2,4-triazole-3-carboxamide, trifluoroacetic acid], the pEC50 in experiment [1] and in experiment [2] was 6.00 to 7.00 each time. This molecule had a pIC50 at HSP90a protein of 6.00 to 7.00.
On to `C=CC(=O)N1CCN(c2nc(NCCC(=O)N3CCC(Cc4ccc(-n5c(C(=O)NCC(F)(F)F)nnc5-c5cc(C(C)C)c(O)cc5O)cc4)CC3)nc3c2CCN(c2cc(O)cc4ccccc24)C3)CC1` [Compound 11, 4-(4-((1-(3-((4-(4-acryloylpiperazin-1-yl)-7-(3-hydroxynaphthalen-1-yl)-5,6,7,8-tetrahydropyrido[3,4-d]pyrimidin-2-yl)amino)propanoyl)piperidin-4-yl)methyl)phenyl)-5-(2,4-dihydroxy-5-isopropylphenyl)-N-(2,2,2-trifluoroethyl)-4H-1,2,4-triazole-3-carboxamide, trifluoroacetic acid], for which the figures for the pEC50 in experiment [1] and in experiment [2] were below 6.00 and 6.00 to 7.00, respectively. For the same molecule, on HSP90a protein, the pIC50 is below 6.00.
With `C=CC(=O)N1CCN(c2nc(OCCC(=O)N3CCC(CN4CCN(Cc5ccc(-n6c(O)nnc6-c6cc(C(C)C)c(O)cc6O)cc5)CC4)CC3)nc3c2CCN(c2cc(O)cc4ccccc24)C3)CC1` [Compound 15, 1-(4-(2-(3-(4-((4-(4-(3-(2,4-dihydroxy-5-isopropylphenyl)-5-hydroxy-4H-1,2,4-triazol-4-yl)benzyl)piperazin-1-yl)methyl)piperidin-1-yl)-3-oxopropoxy)-7-(3-hydroxynaphthalen-1-yl)-5,6,7,8-tetrahydropyrido[3,4-d]pyrimidin-4-yl)piperazin-1-yl)prop-2-en-1-one, trifluoroacetic acid], the pEC50 in experiment [1] and in experiment [2] was 6.00 to 7.00 throughout. Further, the pIC50 at HSP90a protein was above 7.00.
On to `C=CC(=O)N1CCN(c2nc(NCCC(=O)N[C@H](C)c3ccc(CN4CCC(Cc5ccc(-n6c(O)nnc6-c6cc(C(C)C)c(O)cc6O)cc5)CC4)cc3)nc3c2CCN(c2cc(O)cc4ccccc24)C3)CC1` [Compound 18, (R)-3-((4-(4-acryloylpiperazin-1-yl)-7-(3-hydroxynaphthalen-1-yl)-5,6,7,8-tetrahydropyrido[3,4-d]pyrimidin-2-yl)amino)-N-(1-(4-((4-(4-(3-(2,4-dihydroxy-5-isopropylphenyl)-5-hydroxy-4H-1,2,4-triazol-4-yl)benzyl)piperidin-1-yl)methyl)phenyl)ethyl)propanamide, trifluoroacetic acid], for which the pEC50 in experiment [1] and in experiment [2] was 6.00 to 7.00 in each case. The pIC50 on HSP90a protein was 6.00 to 7.00.
In the case of `C=CC(=O)N1CCN(c2nc(NCCC(=O)N3CCC(Cc4ccc(CN(C)Cc5ccc(-n6c(O)nnc6-c6cc(C(C)C)c(O)cc6O)cc5)cc4)CC3)nc3c2CCN(c2cc(O)cc4ccccc24)C3)CC1` [Compound 19, 1-(4-(2-((3-(4-(4-(((4-(3-(2,4-dihydroxy-5-isopropylphenyl)-5-hydroxy-4H-1,2,4-triazol-4-yl)benzyl)(methyl)amino)methyl)benzyl)piperidin-1-yl)-3-oxopropyl)amino)-7-(3-hydroxynaphthalen-1-yl)-5,6,7,8-tetrahydropyrido[3,4-d]pyrimidin-4-yl)piperazin-1-yl)prop-2-en-1-one, trifluoroacetic acid], the pEC50 in experiment [1] and in experiment [2] was 6.00 to 7.00 throughout. Further, the pIC50 at HSP90a protein is 6.00 to 7.00.
Take `CCCc1cc(-c2nnc(O)n2-c2ccc(CN3CCN(CC4CCN(C(=O)CCNc5nc6c(c(N7CCN(C(C)=O)CC7)n5)CCN(c5cc(O)cc7ccccc57)C6)CC4)CC3)cc2)c(O)cc1O` [Compound 59, 3-((4-(4-acetylpiperazin-1-yl)-7-(3-hydroxynaphthalen-1-yl)-5,6,7,8-tetrahydropyrido[3,4-d]pyrimidin-2-yl)amino)-1-(4-((4-(4-(3-(2,4-dihydroxy-5-propylphenyl)-5-hydroxy-4H-1,2,4-triazol-4-yl)benzyl)piperazin-1-yl)methyl)piperidin-1-yl)propan-1-one, trifluoroacetic acid]: the pEC50 in experiment [1] was below 6.00; in experiment [2] it was 6.00 to 7.00. At HSP90a protein, the pIC50 was 6.00 to 7.00.
With `CC(=O)N1CCN(c2nc(NCCC(=O)N[C@H](C)c3ccc(CN4CCC(Cc5ccc(-n6c(O)nnc6-c6cc(C(C)C)c(O)cc6O)cc5)CC4)cc3)nc3c2CCN(c2cc(O)cc4ccccc24)C3)CC1` [Compound 60, (R)-3-((4-(4-acetylpiperazin-1-yl)-7-(3-hydroxynaphthalen-1-yl)-5,6,7,8-tetrahydropyrido[3,4-d]pyrimidin-2-yl)amino)-N-(1-(4-((4-(4-(3-(2,4-dihydroxy-5-isopropylphenyl)-5-hydroxy-4H-1,2,4-triazol-4-yl)benzyl)piperidin-1-yl)methyl)phenyl)ethyl)propanamide, trifluoroacetic acid], the pEC50 in experiment [1] is below 6.00; in experiment [2], 6.00 to 7.00. Moreover, the pIC50 at HSP90a protein is above 7.00.
As to `CCC(=O)N1CCN(c2nc(NCCC(=O)N[C@H](C)c3ccc(CN4CCC(Cc5ccc(-n6c(O)nnc6-c6cc(C(C)C)c(O)cc6O)cc5)CC4)cc3)nc3c2CCN(c2cc(O)cc4ccccc24)C3)CC1` [Compound 61], the results for the pEC50 in experiment [1] and in experiment [2] were below 6.00 and 6.00 to 7.00, respectively. Further, the pIC50 at HSP90a protein is above 7.00.
Consider `C=CC(=O)N1CCN(c2nc(OC[C@@H]3CCN(CCC(=O)c4cc(C(C)C)c(O)cc4O)C3)nc3c2CCN(c2cccc4cccc(Cl)c24)C3)C[C@@H]1CC#N` [Compound 186, 2-((S)-1-acryloyl-4-(7-(8-chloronaphthalen-1-yl)-2-(((R)-1-(3-(2,4-dihydroxy-5-isopropylphenyl)-3-oxopropyl)pyrrolidin-3-yl)methoxy)-5,6,7,8-tetrahydropyrido[3,4-d]pyrimidin-4-yl)piperazin-2-yl)acetonitrile, trifluoroacetic acid], for which the inhibition at 10 µM on KRAS(G12C) [3] lay within 33 to 66%. The pIC50 is 6.00 to 7.00 at KRAS(G12C) [4] and below 6.00 on HSP90a protein. The molecule further registered a DC50 at KRAS(G12C) [5] above 1000 nM.
